Test results taken from patent publication US10065954B2, “Substituted imidazo[4,5-c]pyridines as SSAO inhibitors” (Proximagen Limited, priority 2014, dated 2018).

Each compound was assayed against T1, purified recombinantly expressed human SSAO (Homo sapiens, UniProt Q16853) (assay: SSAO enzyme inhibition assay (benzylamine substrate; hydrogen peroxide/HRP-coupled or 14C-aldehyde detection)). Conditions: SSAO inhibitory activity; recombinant human SSAO, RT.
T1 construct: made in house
T1 sequence (Q16853 1-763): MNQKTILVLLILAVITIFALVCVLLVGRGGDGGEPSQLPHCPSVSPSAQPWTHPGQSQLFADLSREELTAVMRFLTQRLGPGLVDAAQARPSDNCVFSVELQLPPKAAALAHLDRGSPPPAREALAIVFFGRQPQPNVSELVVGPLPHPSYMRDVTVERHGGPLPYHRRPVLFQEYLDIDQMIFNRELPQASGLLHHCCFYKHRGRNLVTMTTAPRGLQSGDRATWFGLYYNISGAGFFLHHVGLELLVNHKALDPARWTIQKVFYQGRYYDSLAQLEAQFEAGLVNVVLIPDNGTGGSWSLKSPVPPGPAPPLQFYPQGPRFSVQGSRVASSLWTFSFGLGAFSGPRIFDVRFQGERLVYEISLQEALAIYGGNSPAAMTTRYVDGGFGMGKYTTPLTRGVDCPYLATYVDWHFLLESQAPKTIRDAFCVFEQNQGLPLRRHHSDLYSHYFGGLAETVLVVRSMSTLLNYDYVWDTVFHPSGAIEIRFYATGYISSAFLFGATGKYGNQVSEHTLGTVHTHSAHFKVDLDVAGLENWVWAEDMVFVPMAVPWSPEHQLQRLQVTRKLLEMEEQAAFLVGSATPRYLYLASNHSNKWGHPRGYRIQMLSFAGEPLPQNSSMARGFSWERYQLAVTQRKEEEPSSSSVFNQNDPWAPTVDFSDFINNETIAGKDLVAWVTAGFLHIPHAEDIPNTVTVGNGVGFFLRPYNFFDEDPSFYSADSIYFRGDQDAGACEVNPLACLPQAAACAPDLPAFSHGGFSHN
Assay type: biochemical
Procedure: All primary assays were performed at RT. with purified recombinantly expressed human SSAO. Enzyme was prepared essentially as described in Öhman et al. (Protein Expression and Purification 46 (2006) 321-331). In addition, secondary- and selectivity assays were performed using SSAO prepared from various tissues or purified rat recombinant SSAO. The enzyme activity was assayed with benzylamine as substrate by measuring either benzaldehyde production, using ^14C-labeled substrate, or by utilizing the production of hydrogen peroxide in a horseradish peroxidase (HRP) coupled reaction. Briefly, test compounds were dissolved in dimethyl sulfoxide (DMSO) to a concentration of 10 mM. Dose-response measurements were assayed by either creating 1:10 serial dilutions in DMSO to produce a 7 point curve or by making 1:3 serial dilutions in DMSO to produce 11 point curves. The top concentrations were adjusted depending on the potency of the compounds and subsequent dilution in reaction buffer yielded a final DMSO concentration ≤2%.
In a horseradish peroxidase (HRP) coupled reaction, hydrogen peroxide oxidation of 10-acetyl-3,7-dihydroxyphenoxazine produced resorufin, which is a highly fluorescent compound (Zhout and Panchuk-Voloshina. Analytical Biochemistry 253 (1997) 169-174; Amplex® Red Hydrogen Peroxide/peroxidase Assay kit, Invitrogen A22188). Enzyme and compounds in 50 mM sodium phosphate, pH 7.4 were set to pre-incubate in flat-bottomed microtiter plates for approximately 15 min before initiating the reaction by addition of a mixture of HRP, benzylamine and Amplex reagent. Benzylamine concentration was fixed at a concentration corresponding to the Michaelis constant, determined using standard procedures. Fluorescence intensity was then measured at several time points during 1-2 h, exciting at 544 nm and reading the emission at 590 nm. For the human SSAO assay final concentrations of the reagents in the assay wells were: SSAO enzyme 1 ug/mL, benzylamine 100 uM, Amplex reagent 20 uM, HRP 0.1 U/mL and varying concentrations of test compound. The inhibition was measured as % decrease of the signal compared to a control without inhibitor (only diluted DMSO). The background signal from a sample containing no SSAO enzyme was subtracted from all data points. Data was fitted to a four parameter logistic model and IC50 values were calculated using the GraphPad Prism 4 or XLfit 4 programs.
SSAO activity was assayed using […] benzylamine and analysed by measuring radioactive benzaldehyde. In a white 96-well optiplate (Packard), 20 uL of diluted test compound was pre-incubated at RT with 20 uL SSAO enzyme for approximately 15 min with continuous agitation. All dilutions were made with PBS. The reaction was initiated by adding 20 uL of the benzylamine substrate solution containing Benzylamine hydrochloride (CFA589, GE Healthcare). The plate was incubated for 1 h as above after which the reaction was stopped by acidification (10 uL 1M aq HCl). Then 90 uL Micro Scint-E solution (Perkin-Elmer) was added to each well and the plate was continuously mixed for 15 min. Phase separation occurred instantly and activity was read in a Topcount scintillation counter (Perkin-Elmer). In the final reaction well, the human recombinant SSAO concentration was 10 ug/mL. In order to optimize sensitivity, the substrate concentration was decreased as compared to the HRP coupled assay in order to get a higher fraction of radioactive product. In the human SSAO assay, benzylamine concentration was 40 uM (0.2uCi/mL). Data was analysed as above.

Row | SMILES | IC50 [µM]
1 | Cc1cc(N2CCOCC2)ncc1-c1nc2ccncc2n1-c1ccc(F)cn1 [Compound 14, 4-{5-[3-(5-Fluoropyridin-2-yl)-3H-imidazo[4,5-c]pyridin-2-yl]-4-methylpyridin-2-yl}morpholine; tris(trifluoroacetic acid)] | 0.2 to 1.2
2 | Cc1ccc(-n2c(-c3ccc(NC4CCOCC4)cc3)nc3ccncc32)cn1 [Compound 35, N-{4-[3-(6-Methylpyridin-3-yl)-3H-imidazo[4,5-c]pyridin-2-yl]phenyl}oxan-4-amine] | 0.2 to 1.2
3 | Cc1ccc(-n2c(-c3ccc(N4CCC(F)CC4)cc3)nc3ccncc32)cn1 [Compound 37, 5-{2-[4-(4-Fluoropiperidin-1-yl)phenyl]-3H-imidazo[4,5-c]pyridin-3-yl}-2-methylpyridine] | 0.05 to 0.2
4 | CCN(CC)c1ncc(-c2nc3ccncc3n2-c2ccc(C)nc2)cn1 [Compound 4, N,N-Diethyl-5-[3-(6-methylpyridin-3-yl)-3H-imidazo[4,5-c]pyridin-2-yl]pyrimidin-2-amine] | 0.05 to 0.2
5 | Cc1ccc(-n2c(-c3ccc(N4CCCC4)c(F)c3)nc3ccncc32)cn1 [Compound 34, 5-{2-[3-Fluoro-4-(pyrrolidin-1-yl)phenyl]-3H-imidazo[4,5-c]pyridin-3-yl}-2-methylpyridine] | 0.05 to 0.2
6 | Cc1ccc(-n2c(-c3cnc(N4CCCC4)nc3)nc3ccncc32)cn1 [Compound 25, 5-[3-(6-Methylpyridin-3-yl)-3H-imidazo[4,5-c]pyridin-2-yl]-2-(pyrrolidin-1-yl)pyrimidine] | 0.05 to 0.2
7 | Fc1ccc(-n2c(-c3cnc(NC4CCOCC4)nc3)nc3ccncc32)c(F)c1 [Compound 3, 5-[3-(2,4-Difluorophenyl)-3H-imidazo[4,5-c]pyridin-2-yl]-N-(oxan-4-yl)pyrimidin-2-amine] | 0.05 to 0.2

Other lines, results leading:

Row | IC50 [µM] | SMILES
8 | 0.05 to 0.2 | Cc1ccc(-n2c(-c3ccc(N4CCOCC4)cc3)nc3ccncc32)cn1 [Compound 28, 4-{4-[3-(6-Methylpyridin-3-yl)-3H-imidazo[4,5-c]pyridin-2-yl]phenyl}morpholine]
9 | < 0.05 | CCN(CC)c1ncc(-c2nc3ccncc3n2-c2ccc(C)cc2)cn1 [Compound 6, N,N-Diethyl-5-[3-(4-methylphenyl)-3H-imidazo[4,5-c]pyridin-2-yl]pyrimidin-2-amine]
10 | 0.05 to 0.2 | Fc1ccc(-n2c(-c3ccc(N4CCOCC4)nc3)nc3ccncc32)nc1 [Compound 1, 4-{5-[3-(5-Fluoropyridin-2-yl)-3H-imidazo[4,5-c]pyridin-2-yl]pyridin-2-yl}morpholine]
11 | 0.05 to 0.2 | Cc1ccc(-n2c(-c3cnc(N4CCCC4)nc3)nc3ccncc32)nc1 [Compound 26, 5-[3-(5-Methylpyridin-2-yl)-3H-imidazo[4,5-c]pyridin-2-yl]-2-(pyrrolidin-1-yl)pyrimidine]
12 | 0.05 to 0.2 | Cc1ccc(-n2c(-c3ccc(N4CCOCC4)cc3F)nc3ccncc32)cn1 [Compound 33, 4-{3-Fluoro-4-[3-(6-methylpyridin-3-yl)-3H-imidazo[4,5-c]pyridin-2-yl]phenyl}morpholine]
13 | < 0.05 | Cc1cc(N2CCOCC2)ncc1-c1nc2ccncc2n1-c1ccc(F)cc1F [Compound 2, 4-{5-[3-(2,4-Difluorophenyl)-3H-imidazo[4,5-c]pyridin-2-yl]-4-methylpyridin-2-yl}morpholine]
14 | 0.05 to 0.2 | Cc1ccc(-n2c(-c3ccc(N4CCCC4)cc3)nc3ccncc32)nc1 [Compound 36, 5-Methyl-2-{2-[4-(pyrrolidin-1-yl)phenyl]-3H-imidazo[4,5-c]pyridin-3-yl}pyridine]
15 | 0.05 to 0.2 | CCN(CC)c1ncc(-c2nc3ccncc3n2-c2ccc(C)cn2)cn1 [Compound 7, N,N-Diethyl-5-[3-(5-methylpyridin-2-yl)-3H-imidazo[4,5-c]pyridin-2-yl]pyrimidin-2-amine]
16 | < 0.05 | Fc1ccc(-n2c(-c3ccc(N4CCSCC4)nc3)nc3ccncc32)cc1 [Compound 16, 4-{5-[3-(4-Fluorophenyl)-3H-imidazo[4,5-c]pyridin-2-yl]pyridin-2-yl}thiomorpholine]
